# Assay results as given in US8865672B2, “Prevention of tissue ischemia and related methods” (The United States of America, as represented by the …, priority 2006, dated 2014).
# Square brackets hold non-standard residues; d marks the D form. Ends that are not written are not given here.
# Legend:
# HAVSMC [1] = experiment: 3D collagen matrix contraction assay, human aortic VSMC; assay type: cell-based; conditions: HAVSMC, 10% FCS or 100 nM S1P
# Description: Type I collagen gel (3 mg/ml) with 10×M199 (Gibco, Grand Island, N.Y.) at a 10:1 ratio of collagen to medium was prepared, pH balanced with NaOH and seeded with either HAVSMC or VSMC harvested from aortic segments from C57B16 WT or TSP1 null mice (50,000 cells in 75 μl of gel/well) and aliquoted to 96-well plates (Nunc, Denmark). Plates were incubated for 12 h 37° C. and 5% CO2 allowing for gelation and cell spreading, gently released from the well walls and incubated in serum and additive deficient growth medium with 0.1% BSA in the presence of the indicated treatment agents for 10 h. Contraction was determined by measuring the diameter in perpendicular planes (x, y) of each disk, an average obtained and surface area calculated as (d/2)^2π. Experiments were performed in triplicate. Results represent the mean±SD of at least three separate experiments.
# Human aortic VSMC were plated onto 12-well culture plates (Nunc) at a density of 5×10^4 cells/well in SM-GM+2% FCS and cultured until approximately 90% confluent. A translation-blocking antisense morpholino oligonucleotide complementary to human and murine CD47 ([…]; SEQ ID NO: 21) and a five-base mismatch control (CGTgACAGcCAcGACCgACTGCgCA; SEQ ID NO: 22) were obtained from GeneTools (Philomath, Oreg.). Cultured cells were treated as per the manufacturer's recommendation with morpholinos (10 μM) and utilized within 48 hours of treatment.
# HAVSMC [2] = experiment: Actin cytoskeleton staining (F-actin) in HAVSMC; assay type: cell-based, human
# Description: VSMC were grown on glass well slides (Lab-Tek, Nunc) under standard growth conditions. Cells were incubated at 37° C. for 1 hour in serum and additive deficient growth medium and the indicated treatment agents, after which the media was removed and the cells were fixed in 4% paraformaldehyde in PBS (pH 7.4, Fisher Scientific) for 15 minutes at room temperature. After washing with DPBS, cells were permeabilized for 5 minutes in 0.1% Triton X-100 in PBS and then blocked in M199E/2% BSA for 30 min at room temperature. Cells were stained for F-actin with 1 unit/200 μl medium/1% BSA of Oregon Green 488 phalloidin (Molecular Probes). Slides were imaged using an Olympus IX70 microscope and photographed at constant exposure and gain. In other experiments VSMC were plated on 24-well culture plates (Nunc, Denmark) in smooth muscle growth medium (50,000 cells/well) and weaned from serum and additives over 24 hours. Cell treatment was performed with the indicated agents in plain medium with 0.1% BSA for 5 minutes. Wells were processed as described above. Following staining with phalloidin cells were incubated in methanol for 30 minutes, samples aliquoted to 96-well black plates and fluorescence read at 520 nm (excitation 495 nm). Data was normalized to total protein. Results represent the mean±SD of at least three separate experiments.
# human platelets [3] = experiment: Human platelet adhesion assay; assay type: cell-based; conditions: fibrinogen or collagen, DEA/NO 10 μM
# Description: Bacteriological Petri dishes (35×10 mm, Becton Dickinson Labware) were pre-coated with collagen (3 μg/ml) or fibrinogen (15 μg/mL) overnight. Following aspiration of non-adherent matrix, dishes were blocked with 1% BSA. Fresh platelets were washed and suspended in Tyrode's buffer and allowed to adhere for 30 minutes. Plates were washed with PBS, fixed with 0.5% glutaraldehyde and stained with 0.02% toluidine blue. Adherent platelets were counted microscopically. In some experiments platelets were pre-incubated with the Rap1 geranylgeranyltransferase inhibitor GGTI-298 (10 μM) for 30 minutes prior to initiating adhesion.
# human platelets [4] = experiment: cGMP in human platelets; assay type: cell-based; conditions: washed human platelets in Tyrode's buffer
# Description: Fresh human platelets at 2×10^5 platelets/μl in Tyrode's buffer or PRP were pre-incubated with the indicated agents for 15 minutes and then challenged with DEA/NO for the indicated time interval at room temperature and total cGMP determined via immunoassay (Amersham, GE Healthcare, Buckinghamshire, UK). Murine WT and TSP1-null platelets were treated with DEA/NO and cGMP flux measured.
# human platelets [5] = experiment: Thrombin-induced human platelet aggregation; assay type: cell-based; conditions: high shear, thrombin 0.2 U/ml, DEA/NO 10 μM
# Description: Platelets were pelleted from platelet-rich plasma (PRP) by centrifugation for 10 minutes at 200 g. They were then washed with acid citrate dextrose (ACD) (85 mM citric acid, 65 mM sodium citrate, 100 mM glucose, pH 5.1) at a ratio of 1:7 at room temperature. After pelleting the platelets again and removing the supernatant, the platelets were resuspended in 5 mL of Tyrode's buffer (137 mM NaCl, 3 mM KCl, 12 mM NaHCO3, 0.3 mM NaHPO4, 2 mM CaCl2, 1 mM MgCl2, 5.5 mM glucose, 5 mM HEPES, 3.5 mg/mL BSA, pH 7.4). The final platelet number was adjusted to […] in 500 μl/cuvette of Tyrode's buffer.
# Aggregation of human platelets under high shear conditions was assessed using a standard optical aggregometer (Lumi-Dual Aggregometer, Chrono-Log Corp., Havertown, Pa.) at 37° C. and 1200 rpm in a volume of 500 μl buffer with a final platelet concentration of 2×10^5 platelets/μl over a 5 minute interval. Pre-incubation with TSP1 and TSP1-based agents was for 15 minutes prior to addition of thrombin and/or the rapidly releasing nitric oxide donor DEA/NO. In some experiments platelets were pre-incubated with the Rap1 inhibitor GGTI-298 (10 μM) (Calbiochem, La Jolla, Calif.) for 30 minutes prior to initiating aggregation. In other high shear aggregation experiments murine platelets were prepared as above with the following modifications. Mouse blood was collected by retro-orbital bleeding of anesthetized mice using heparinized tubes. PRP was prepared and then diluted with 4 vol. of Tyrodes containing 5 mM EDTA to prevent activation. After collection by centrifugation, platelets were resuspended in 2× initial PRP volume and held at room temperature for less than 1 hour before use. Aggregation conditions consisted of 250 μL of washed platelets stirred at 1200 rpm in a Chronolog Optical aggregometer at 37° C. DEA/NO (10 μM) was added 30 seconds prior to activation and 8-BrcGMP added 15 min prior to activation with 0.2 U/ml human thrombin. Data was collected using Chronolog “Aggrolink” software. Platelet aggregation under static conditions was assessed using a spectrophotometer (Beckman DU 640, Beckman Coulter, Fullerton, Calif.) and determined as a change in absorbance at 400 nm with continuous observation over a five minute interval. The cuvette was inverted once every 60 seconds. Pre-incubation with TSP1 and TSP1-based agents was for 15 minutes prior to addition of thrombin and/or DEA/NO to minimize the formation of thrombin-serpinthrombospondin complexes (Chang & Detwiler, Arch Biochem Biophys. 299:100-104, 1992), which interfere with thrombin-platelet interactions.
# Fresh human platelets were suspended in Tyrode's buffer and under low shear conditions thrombin-stimulated aggregation measured as described. Platelets were then treated with peptide C6d (1 μM)±NO (10 μM DEA/NO) and thrombin and aggregation measure.
# [6] = tested on: murine ASMC (WT, CD36 null, CD47 null); experiment: Intracellular cGMP in murine ASMC; assay type: cell-based, mouse
# Description: Murine ASMC were obtained from aortic segments harvested sterilely from C57B1/6 CD47 null or CD36 null mice as described (Ray et al., Methods Cell Sci 23:185-188, 2001) and cultured in SM-GM (Cambrex)+20% FCS. In the case of CD36 null cells, culture flasks were pre-coated with 1% gelatin prior to cell plating. Wild type C57B1/6 ASMC cultures were prepared as previously described (Isenberg et al., Matrix Biol 24:110-123, 2005). Cell culture purity was determined by immunohistochemistry staining for α-smooth muscle actin. Cells were used within passage 1 to 4 to minimize overgrowth of other cell types.
# HUVEC (10^4 cells/well) grown overnight in 96-well culture plates containing full growth medium with 2% FCS and weaned in growth medium without additives and 1% FCS over 24 hrs before treatment with NO donors and other agents in SM-GM without additives+0.1% BSA. Intracellular cGMP levels were determined according to the manufacturer's instructions using an enzyme immunoassay kit (Amersham Biosciences). In other experiments ASMC from wild type and CD36 or CD47 null mice were plated onto 96-well culture plates and incubated overnight in full growth medium. They were then weaned off serum as described to SM-GM+0.1% BSA and treated with NO donor and other agents as indicated. Intracellular cyclic nucleotides were determined via immunoassay.
# HUVEC = experiment: NO-stimulated HUVEC adhesion on type I collagen; assay type: cell-based, human; conditions: DEA/NO 10 μM, 1 h
# Description: Cell adhesion was carried out in 96-well culture plates. After pre-coating wells with type I collagen (3 μg/ml in DPBS) harvested cells were plated at a density of 1×10^4 cells/well in medium plus 0.1% BSA and treatment agents and incubated in 5% CO2 for 1 h. Wells were washed with PBS and cells fixed with 1% glutaraldehyde for 10 min., washed and stained with 1% crystal violet for 20 min. Excess stain was rinsed away, adherent cells treated with 10% acetic acid, and plates read at 570 nm.
compound,measurement,setting,value
"NCCN(CCN)/[N+]([O-])=N/O [DETA/NO, diethyltriamine NONOate]",collagen gel contraction,HAVSMC [1],inhibited gel contraction by both agonists
"O=c1onc2cnc3ccccc3n12 [ODQ, Oxadiazole-[4,3-a]quinoxalin-1-one, reference compound]",NO-induced actin disassembly,HAVSMC [2]; DEA/NO 10 μM,inhibition of actin disassembly by NO
same,decrease in platelet adhesion in response to exogenous NO,human platelets [3],prevented the decrease in platelet adhesion
"CCCCCCCCCCCCC/C=C/[C@@H](O)[C@@H](N)COP(=O)(O)O [S1P, sphingosine-1-phosphate, reference compound]",collagen gel contraction,HAVSMC [1],significant contraction
same,F-actin levels,"HAVSMC [2]; agent alone (TSP1 2.2 nM, S1P 100 nM)",increased F-actin
"GDGV(D-I)TRIR (GDGV[dI]TRIR) [p907, reference compound]",NO stimulated cGMP in platelets,human platelets [4],partially inhibited
same,NO delay of thrombin-induced platelet aggregation,human platelets [5],accelerated platelet aggregation in the presence of NO
same,NO-stimulated cGMP,[6]; CD36 null MASMC,partially inhibited
same,NO-stimulated cGMP,[6]; CD47 null MASMC,did not significantly inhibit
same,NO-stimulated cGMP,[6]; WT MASMC,slightly inhibited
same,NO-stimulated cGMP,"[6]; WT MASMC, listed as 907",inhibited NO-stimulated cGMP responses in WT
same,NO-stimulated endothelial cell adhesion on type I collagen,HUVEC,inhibited NO-stimulated endothelial cell adhesion
